The results in this text go back to patent US8003659B2, “Macrocyclic serine protease inhibitors” (Indenix Pharmaceuticals, Inc., priority 2008, dated 2011).

Like-named read-outs stand apart in the source and are kept apart here. Where only a bound is given, the exact number is not on record here.

The conditions of series [1]: rcm bond, 14-membered ring, DCE.
Another series has as its target T1, HCV NS3-NS4A protease (Hepatitis C virus genotype 1b, UniProt P26663).
T1 construct: made in house
In words: HCV Protease Assay (SensoLyte 620 HCV Protease Assay kit). It is filed as biochemical. Conditions: 1.2 nM HCV NS3-NS4A protease, 60 min at room temperature, 5% DMSO. The method in brief:
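Protease at 1.2 nM, run with the SensoLyte 620 fluorogenic kit under supplier conditions, with compounds at several concentrations in buffer with 5% final DMSO. Reactions ran 60 min at room temperature before fluorescence reading; IC50 from four-parameter sigmoidal fit of percent inhibition.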

For series [2], the system named is Huh-7 cells containing HCV Con1 subgenomic replicon (GS4.1 cells). Description: HCV Replicon Assay (NS4A ELISA). To be noted: NS4A protein by ELISA. The series is classed as cell-based. The method in brief:
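GS4.1 cells (Huh-7 with HCV Con1 subgenomic replicon) given ten 2-fold compound dilutions (top 75 μM) or a single 15 μM dose in 0.5% DMSO for 72 h at 37 °C. NS4A measured by cell ELISA (A492); EC50 from four-parameter sigmoidal fit, single-dose results as % inhibition at 15 μM.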
(In general: In antiviral work, replicon cells carry a viral genome segment that copies itself.)

Series [3] can be described thus: Cytotoxicity evaluation (Cell Titer 96 AQueous One Solution Cell Proliferation Assay). It is filed as cell-based. To be noted: human; GS4.1 cells, cellular viability. As to the method:
(§1) For cytotoxicity evaluation, GS4.1 cells were treated with compounds as described above and cellular viability was monitored using the Cell Titer 96 AQueous One Solution Cell Proliferation Assay (Promega). CC50 values were determined from the % cytotoxicity versus concentration data with Tecan Magellan software as described above.

Another series has as its system genotype 1b replicon. Description: Antiviral activity in a genotype 1b replicon assay. It is filed as cell-based, HCV. Conditions: Hepatitis C virus; genotype 1b replicon assay as described in Example 32; read-out: EC50. As to the method:
General procedure: Huh-7 cells containing HCV Con1 subgenomic replicon (GS4.1 cells) were grown in Dulbecco's Modified Eagle Medium (DMEM) supplemented with 10% fetal bovine serum (FBS), 2 mM L-glutamine, 110 mg/L sodium pyruvate, 1× non-essential amino acids, 100 U/mL penicillin-streptomycin, and 0.5 mg/mL G418 (Invitrogen). For dose-response testing, the cells were seeded in 96-well plates at 7.5×10^3 cells/well in a volume of 50 μL, and incubated at 37° C./5% CO2. Three hours after plating, 50 μL of ten 2-fold serial dilutions of compounds (highest concentration, 75 μM) were added, and cell cultures were incubated at 37° C./5% CO2 in the presence of 0.5% DMSO. Alternatively, compounds were tested at a single concentration of 15 μM. In all cases, Huh-7 cells lacking the HCV replicon served as negative control. The cells were incubated in the presence of compounds for 72 hr after which they were monitored for expression of the NS4A protein by enzyme-linked immunosorbent assay (ELISA). For this, the plates were then fixed for 1 min with acetone/methanol (1:1, v/v), washed twice with phosphate-buffered saline (PBS), 0.1% Tween 20, blocked for 1 hr at room temperature with TNE buffer containing 10% FBS and then incubated for 2 hr at 37° C. with the anti-NS4A mouse monoclonal antibody A-236 (ViroGen) diluted in the same buffer. After washing three times with PBS, 0.1% Tween 20, the cells were incubated 1 hr at 37° C. with anti-mouse immunoglobulin G-peroxidase conjugate in TNE, 10% FBS. After washing as described above, the reaction was developed with O-phenylenediamine (Zymed). The reaction was stopped after 30 min with 2 NH2SO4, and absorbance was read at 492 nm using Sunrise Tecan spectrophotometer. EC50 values were determined from the % inhibition versus concentration data using a sigmoidal non-linear regression analysis based on four parameters with Tecan Magellan software. When screening at a single concentration, the results were expressed as % inhibition at 15 μM.
(§2) Compounds were tested in a genotype 1b replicon assay as described in Example 32 and the results are summarized in Table 6, wherein A represents a value smaller than 1 μM, and B represents a value between 1 μM to 10 μM, C represents a value between 10 μM to 75 μM and D represents a value greater than 75 μM.

A short description of series [4]: Cytotoxicity (CC50) in the genotype 1b replicon assay. The series is classed as cell-based. Conditions: human, GS4.1 cells; genotype 1b replicon assay as described in Example 32. As to the method:
as §1, §2

Series [5] relates to HCV genotype 2a infectious virus. In words: HCV genotype 2a infectious virus assay. It is filed as cell-based, HCV (strain JFH-1; genotype 2a). To be noted: Hepatitis C virus. As to the method:
Compounds were tested in a HCV genotype 2a infectious virus assay and the results are summarized in Table 7, wherein A represents a value smaller than 1 μM, and B represents a value between 1 μM to 10 μM, C represents a value between 10 μM to 75 μM and D represents a value greater than 75 μM.
The HCV in vitro infection core ELISA assay measures the ability of a test compound to inhibit replication of an infectious HCV (strain JFH-1; genotype 2a) in cell culture. […] We have developed this model for determining the efficacy of antiviral compounds against an infectious virus in vitro using HCV producing cells (HPC), a proprietary Huh-7-derived cell sublineage capable of propagating the JFH-1 HCV virus. The readout of the assay is quantification of HCV core protein by ELISA 5 days post infection with JFH-1 virus and treatment with a test compound.
Ninety-six-well Corning Costar plates were seeded with HPC cells at a density of 3.0×10^3 cells per well in 50 μL of Huh-7 media. Compound stock solutions were made up freshly in Huh-7 media (DMEM (containing glucose, L-glutamine and sodium pyruvate), 10% FBS, 100 IU/mL penicillin, 100 μg/mL streptomycin, 2 mM GlutaMAX, 1% MEM non-essential amino acids) as 2× stock. Seven additional 3-fold drug dilutions were prepared from the 2× stocks in Huh-7 media. At least 4 hours after HPC cells were seeded, the media in the 96-well culture plates was aspirated and 50 μL of each drug dilution and 50 μL of JFH-1 HCV was added to each well.
At 16 hrs post treatment and infection, the virus inoculum was removed by aspiration. The cultures were treated at the same final concentrations of drug diluted to 1× in Huh-7 media to a final volume of 200 μL. Cells were incubated in the presence of drug for 4 additional days at 37° C./5% CO2.
Media was removed from the plates by aspiration. Cells were fixed with 250 μL 1:1 acetone:methanol for 90 seconds, washed once in PBS and then three times with 1×KPL wash solution. The assay plates were then blocked with 150 μL/well 10% FBS-TNE (50 mM Tris-HCl (pH 7.5; Sigma), 100 mM NaCl, 1 mM EDTA with 10% FBS) for 1 hr at room temperature. Cells were washed three times with 1×KPL wash solution and incubated with 100 μL/well anti-hepatitis C core mAb (1 mg/mL stock diluted 1:500 in 10% FBS-TNE) for 2 hours at 37° C. Cells were washed three times with 1×KPL wash solution and incubated with 100 μL/well HRP-goat anti-mouse antibody (diluted 1:2,500 in 10% FBS-TNE) for 1 hr at 37° C.
OPD solution was prepared using 1 OPD tablet+12 mL citrate/phosphate buffer (16 mM citric acid, 27 mM Na2HPO4) plus 5 μL 30% H2O2 per plate. Cells were washed three times with 1×KPL wash solution and developed with 100 μL/well OPD solution for 30 minutes in the dark at room temperature. The reaction was stopped with 100 μL/well of 2NH2SO4, and absorbance measured at A490 nm in a Victor^3 V 1420 multilabel counter (Perkin Elmer). The EC50 values for each compound were calculated from dose response curves from the resulting best-fit equations determined by Microsoft Excel and XLfit 4.1 software. The negative control for inhibition of virus replication was untreated HPC cells infected with the JFH-1 HCV virus strain. The negative ELISA control was untreated, uninfected HPC cells. The positive ELISA control was untreated HPC cells infected the JFH-1 HCV virus strain.

The subject of the next series is GS4.1 cells. Description: Cytotoxicity evaluation (Cell Titer 96 AQueous One Solution Cell Proliferation Assay). It is filed as cell-based. To be noted: cellular viability. As to the method:
as §1

Where [6] appears, read: Hepatitis C virus, Huh-7, 72 hr.

T1 sequence (P26663 1027-1208): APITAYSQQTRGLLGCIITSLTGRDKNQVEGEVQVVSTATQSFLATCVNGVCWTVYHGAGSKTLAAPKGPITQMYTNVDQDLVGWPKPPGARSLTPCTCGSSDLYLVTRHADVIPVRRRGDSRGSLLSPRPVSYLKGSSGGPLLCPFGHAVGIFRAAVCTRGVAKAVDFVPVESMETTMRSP

In series [1] (from C=CCCCCN(C)C(=O)[C@@H]1C[C@@H](O[Si](C)(C)C(C)(C)C)CN1C(=O)N[C@]1(C(=O)OCC)C[C@@H]1C=C, Hoveyda-Grubbs II (6%), 1.9 mM, 3.0 h), `CCOC(=O)[C@@]12C[C@@H]1C=CCCCCN(C)C(=O)[C@@H]1C[C@@H](O[Si](C)(C)C(C)(C)C)CN1C(=O)N2` yielded a ring closure, isolated yield of 51%.
Take `COc1ccc2c(O[C@H]3C[C@H]4C(=O)N(C)CCCCC=C[C@@H]5C[C@@]5(C(=O)NS(=O)(=O)C5CC5)NC(=O)N4C3)cc(-n3ccc(C(F)(F)F)n3)nc2c1Cl`: the ring closure, isolated yield in series [1] (from C=CCCCCN(C)C(=O)[C@@H]1C[C@H](Oc2cc(-n3ccc(C(F)(F)F)n3)nc3c(Cl)c(OC)ccc23)CN1C(=O)N[C@]1(C(=O)NS(=O)(=O)C2CC2)C[C@H]1C=C, Zhan 1B, 1.0 mM, 60.0 °C, 18.0 h) is 40%.
In turn, `COc1ccc2c(O[C@H]3C[C@H]4C(=O)N(C)CCCC/C=C\[C@@H]5C[C@@]5(C(=O)NS(=O)(=O)C5(C)CC5)NC(=O)N4C3)cc(-c3nc(C(F)(F)F)cs3)nc2c1C` [Compound 68b, (Z)-(4R,6S,15S,17S)-[17-[7-methoxy-8-methyl-2-(4-trifluoromethythiazol-2-yl)quinolin-4-yloxy]-13-N-methyl-2,14-dioxo-1,3,13-triazatricyclo[13.3.0.0]octadec-7-en-4-yl]carbonyl(1-methylcyclopropyl)sulfonamide] had a ring closure, isolated yield in series [1] (from C=CCCCCN(C)C(=O)[C@@H]1C[C@H](Oc2cc(-c3nc(C(F)(F)F)cs3)nc3c(C)c(OC)ccc23)CN1C(=O)N[C@]1(C(=O)NS(=O)(=O)C2(C)CC2)C[C@H]1C=C, Zhan 1B (8%), 4.9 mM, 75.0 °C, 4.33 h) of 30%. Further, the IC50 (as a rule, the concentration needed to halve the response being measured) on HCV NS3-NS4A protease was under 1000 nM. Further, the concentration for a half-maximal effect (EC50) (in series [2] (setting [6]); with genotype 1b replicon; in series [5]) was under 1000 nM throughout. The cytotoxic concentration (CC50) – broadly, the concentration that lowers cell viability or growth by half – is over 75000 nM in series [3] and 10000 to 75000 nM in series [4].
As for `COc1ccc2c(O[C@H]3C[C@H]4C(=O)N(C)CCCC/C=C\[C@@H]5C[C@@]5(C(=O)NS(=O)(=O)C5CC5)NC(=O)N4C3)cc(-c3nc(C(F)(F)F)cs3)nc2c1C` [Compound 69b, (Z)-(4R,6S,15S,17S)-[17-[7-methoxy-8-methyl-2-(4-trifluoromethythiazol-2-yl)quinolin-4-yloxy]-13-N-methyl-2,14-dioxo-1,3,13-triazatricyclo[13.3.0.0]octadec-7-en-4-yl]carbonyl(cyclopropyl)sulfonamide], at HCV NS3-NS4A protease, the concentration for half-maximal inhibition (IC50) was under 1000 nM. Also, the EC50 (in series [2] (setting [6]); in the series on genotype 1b replicon; in series [5]) was under 1000 nM each time. Also, the CC50 in series [3] and in series [4] was over 75000 nM throughout.
As to `COc1ccc2c(O[C@@H]3C[C@H]4C(=O)N(C)CCCCC/C=C\[C@@H]5C[C@@]5(C(=O)NS(=O)(=O)C5(C)CC5)NC(=O)N4C3)cc(-c3nc(C(C)C)cs3)nc2c1C` [Compound 76a, (Z)-(4R,6S,16S,18R)-[2,15-dioxo-18-[7-methoxy-8-methyl-2-(4-isopropylthiazol-2-yl)quinolin-4-yloxy]-14-N-methyl-1,3,14-triazatricyclo[14.3.0.0]nonadec-7-en-4-yl]carbonyl(1-methyl-cyclopropyl)sulfonamide], on HCV NS3-NS4A protease, the IC50 lay in the range of 1000 to 10000 nM. Also, the concentration giving a half-maximal response (EC50) (usually the concentration giving half of the maximal effect) in series [2] (72 hr) is 1000 to 10000 nM. Also, the half-maximal cytotoxic concentration (CC50) with GS4.1 cells is over 75000 nM.
On to `COc1ccc2c(O[C@@H]3C[C@H]4C(=O)N(C)CCCCCC/C=C\[C@@H]5C[C@@]5(C(=O)NS(=O)(=O)C5(C)CC5)NC(=O)N4C3)cc(-c3nc(C(C)C)cs3)nc2c1C` [Compound 76b], for which the IC50 on HCV NS3-NS4A protease is under 1000 nM. In series [2] (72 hr), the EC50 was 1000 to 10000 nM. Further, the 50% cytotoxic concentration (CC50) in the series with GS4.1 cells was over 75000 nM.
Taken in the same sequence, the figures for `COc1ccc2c(O[C@H]3C[C@H]4C(=O)N(C)CCCC/C=C\[C@@H]5C[C@@]5(C(=O)NS(=O)(=O)C5CC5)NC(=O)N4C3)cc(-c3csc(C#N)n3)nc2c1Cl` [Compound T1, (Z)-(4R,6S,15S,17S)-[17-[8-chloro-7-methoxy-2-(2-cyanothiazol-4-yl)quinolin-4-yloxy]-13-N-methyl-2,14-dioxo-1,3,13-triazatricyclo-[13.3.0.0]octadec-7-en-4-yl]carbonyl-(cyclopropyl)sulfonamide] were under 1000 nM, under 1000 nM and 10000 to 75000 nM.
The matching figures for `COc1ccc2c(O[C@H]3C[C@H]4C(=O)N(C)CCCC/C=C\[C@@H]5C[C@@]5(C(=O)NS(=O)(=O)C5(C)CC5)NC(=O)N4C3)cc(-c3csc(C#N)n3)nc2c1Cl` [Compound T2, (Z)-(4R,6S,15S,17S)-[17-[8-chloro-7-methoxy-2-(2-cyanothiazol-4-yl)quinolin-4-yloxy]-13-N-methyl-2,14-dioxo-1,3,13-triazatricyclo-[13.3.0.0]octadec-7-en-4-yl]carbonyl-(1-methylcyclopropyl)sulfonamide]: under 1000 nM, under 1000 nM and over 75000 nM.
